Where two headings read alike, the source gives them in different places.
Assays:
[1] = target: T1, rat histamine H3 receptor (Rattus norvegicus, UniProt Q9QYN8); experiment: Rat H3 radioligand binding ([3H]-N-alpha-methylhistamine, SPA)
T1 construct: encoding the entire 445-amino-acid rat histamine H3 receptor; expressed in transfected cells; membrane preparation
Outline: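 Membranes from CHO-A3 cells stably expressing full-length rat H3 receptor (10 μg protein/well) incubated 4 h at room temperature, protected from light, with ~1 nM [3H]-N-alpha-methylhistamine and compound (0.01 nM-30 μM) in 50 mM Tris HCl pH 7.4, 5 mM MgCl2, 0.1% BSA. Binding read by SPA; 10 μM clobenpropit defined non-specific binding.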

human H3 receptor = target: T2, human H3 receptor (Homo sapiens, UniProt Q9Y5N1); experiment: Human H3 radioligand binding ([3H]-N-alpha-methylhistamine, SPA)
T2 construct: expressed in transfected cells
T2 sequence (Q9Y5N1 whole entry): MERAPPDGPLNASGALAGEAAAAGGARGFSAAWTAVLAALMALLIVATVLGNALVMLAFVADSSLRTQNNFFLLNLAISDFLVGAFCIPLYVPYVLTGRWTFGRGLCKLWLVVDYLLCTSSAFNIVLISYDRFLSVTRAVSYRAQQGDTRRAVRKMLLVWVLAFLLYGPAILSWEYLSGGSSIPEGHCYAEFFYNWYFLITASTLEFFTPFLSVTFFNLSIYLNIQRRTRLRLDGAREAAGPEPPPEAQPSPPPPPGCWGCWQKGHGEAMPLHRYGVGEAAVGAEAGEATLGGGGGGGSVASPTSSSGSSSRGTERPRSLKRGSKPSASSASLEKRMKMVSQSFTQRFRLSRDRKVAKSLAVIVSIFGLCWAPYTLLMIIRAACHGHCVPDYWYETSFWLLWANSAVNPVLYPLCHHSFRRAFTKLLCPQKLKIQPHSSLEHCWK
Outline: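 SPA competition binding on membranes from CHO cells stably expressing human H3 receptor (10 μg protein/well) with ~1 nM [3H]-N-alpha-methylhistamine and compound at 0.01 nM-30 μM. Incubation 4 h at room temperature in 50 mM Tris-HCl pH 7.4, 5 mM MgCl2, 0.1% BSA; non-specific binding defined with 10 μM clobenpropit.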

[2] = Table A, rat H3 binding, read-out: Rat Ki
[3] = Table A, human H3 binding, read-out: Human Ki
[4] = Rat H3 binding, Table B, Examples 136-362, read-out: rat H3 binding Ki
[5] = Human H3 binding, Table B, Examples 136-362, read-out: hum H3 binding Ki
[6] = Table C, rat H3 binding, read-out: Rat H3 Ki
[7] = Table C, human H3 binding, read-out: Human H3 Ki
[8] = rat H3 binding, Table D, read-out: Rat H3 Ki
[9] = human H3 binding, Table D, read-out: Human H3 Ki

T1 sequence (Q9QYN8 whole entry): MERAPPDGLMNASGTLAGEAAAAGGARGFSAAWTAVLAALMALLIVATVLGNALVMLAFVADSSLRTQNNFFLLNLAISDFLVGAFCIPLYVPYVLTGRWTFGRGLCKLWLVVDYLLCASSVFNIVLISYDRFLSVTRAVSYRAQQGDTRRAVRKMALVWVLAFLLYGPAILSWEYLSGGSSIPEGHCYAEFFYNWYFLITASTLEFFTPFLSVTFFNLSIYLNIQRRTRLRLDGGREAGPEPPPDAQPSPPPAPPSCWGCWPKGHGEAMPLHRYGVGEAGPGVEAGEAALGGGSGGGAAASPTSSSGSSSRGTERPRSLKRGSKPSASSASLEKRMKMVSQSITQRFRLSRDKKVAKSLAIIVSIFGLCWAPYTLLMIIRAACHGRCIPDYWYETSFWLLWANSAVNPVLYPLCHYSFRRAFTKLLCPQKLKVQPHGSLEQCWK

O=C(c1ccc(-c2ccc3c(c2)OC2(CCN(C4CCC4)CC2)O3)cc1)N1CCCC1 [Example 90]
melting point: 176.8 to 177.3 °C
Ki [1, 2]: 200 to 1000 nM
Ki (human H3 receptor; [3]): < 200 nM

CNC(=O)c1ccc(-c2ccc3c(c2)CCC2(CCN(C4CCC4)CC2)O3)cc1C#N [Example 246]
melting point: 80 to 82 °C
Ki [1, 4]: < 200 nM
Ki (human H3 receptor; [5]): < 200 nM

O=C(c1ccc(-c2ccc3c(c2)OC2(CCN(C4CCC4)CC2)OC3)cc1)N1CCOCC1 [Example 97]
melting point: 55 °C
Ki [1, 2]: 200 to 1000 nM
Ki (human H3 receptor; [3]): > 1000 nM

Clc1ccc(N2CCN(c3ccc4c(c3)CCC3(CCN(C5CCC5)CC3)O4)CC2)nn1 [Example 389]
melting point: 229 to 231 °C
Ki [1, 6]: < 200 nM
Ki (human H3 receptor; [7]): < 200 nM

NC(=O)c1ccc(-c2ccc3c(c2)COC2(CCN(C4CCC4)CC2)O3)cc1Cl [Example 604]
melting point: 164 to 166 °C
Ki [1, 8]: < 200 nM
Ki (human H3 receptor; [9]): < 200 nM

O=C(C1CCN(c2ccc3c(c2)CCC2(CCN(C4CCC4)CC2)O3)CC1)N1CCCC1 [Example 418]
melting point: 290 to 292 °C
Ki [1, 6]: < 200 nM
Ki (human H3 receptor; [7]): < 200 nM

O=C1C[C@@H](O)CN1c1ccc2c(c1)COC1(CCN(C3CCC3)CC1)O2 [Example 139]
melting point: 120 to 122 °C
Ki [1, 4]: < 200 nM
Ki (human H3 receptor; [5]): < 200 nM

Cc1cc(=O)[nH]cc1-c1ccc2c(c1)CCC1(CCN(C3CCC3)CC1)O2 [Example 771]
melting point: 252 to 254 °C
Ki [1, 8]: < 200 nM
Ki (human H3 receptor; [9]): < 200 nM

COCc1noc(COc2ccc3c(c2)CCC2(CCN(C4CCC4)CC2)O3)n1 [Example 672]
melting point: 178 to 179 °C
Ki [1, 8]: < 200 nM
Ki (human H3 receptor; [9]): < 200 nM

FC1(F)CCN(c2ccc3c(c2)COC2(CCN(C4CCC4)CC2)O3)CC1 [Example 422]
melting point: > 250 °C (dec.)
Ki [1, 6]: 200 to 1000 nM
Ki (human H3 receptor; [7]): < 200 nM

CNC(=O)c1ccc(-c2ccc3c(c2)COC2(CCN(C4CCC4)CC2)O3)cc1 [Example 33]
melting point: 198 to 199 °C
Ki [1, 2]: < 200 nM
Ki (human H3 receptor; [3]): < 200 nM

Cc1n[nH]c(C)c1-c1ccc2c(c1)COC1(CCN(C3CCC3)CC1)O2 [Example 200]
melting point: 110 to 112 °C
Ki [1, 4]: < 200 nM
Ki (human H3 receptor; [5]): < 200 nM

COc1cc(C(=O)O)ccc1-c1ccc2c(c1)COC1(CCN(C3CCC3)CC1)O2 [Example 699]
melting point: 282 to 284 °C
Ki [1, 8]: < 200 nM
Ki (human H3 receptor; [9]): < 200 nM

c1ccc(Oc2ccc3c(c2)CCC2(CCN(C4CCC4)CC2)O3)nc1 [Example 241]
melting point: 232 to 234 °C
Ki [1, 4]: < 200 nM
Ki (human H3 receptor; [5]): < 200 nM

O=c1ccc(Cc2ccc3c(c2)COC2(CCN(C4CCC4)CC2)O3)c[nH]1 [Example 527]
melting point: 194 to 196 °C
Ki ([1]; read-out: Rat H3 kI): < 200 nM
Ki (human H3 receptor; read-out: Human H3 Ki): < 200 nM

O=C(Nc1ccc2c(c1)COC1(CCN(C3CCC3)CC1)O2)c1ccc2[nH]cnc2c1 [Example 326]
melting point: 235 to 237 °C
Ki [1, 4]: < 200 nM
Ki (human H3 receptor; [5]): < 200 nM

Cc1nc(C)c(C(=O)Nc2ccc3c(c2)COC2(CCN(C4CCC4)CC2)O3)s1 [Example 308]
melting point: 174 to 175 °C
Ki [1, 4]: < 200 nM
Ki (human H3 receptor; [5]): < 200 nM

c1ccc(COc2cc(-c3ccc4c(c3)COC3(CCN(C5CCC5)CC3)O4)ccn2)cc1 [Example 548]
melting point: 120 to 125 °C
Ki ([1]; read-out: Rat H3 kI): < 200 nM
Ki (human H3 receptor; read-out: Human H3 Ki): < 200 nM

Fc1cncc(-c2ccc3c(c2)COC2(CCN(C4CCC4)CC2)O3)c1 [Example 4]
melting point: 140 to 145 °C
Ki [1, 2]: < 200 nM
Ki (human H3 receptor; [3]): < 200 nM

CNC(=O)c1ccc(-c2cc3c(cc2Cl)OC2(CCN(C4CCC4)CC2)OC3)cc1 [Example 266]
melting point: 95 to 97 °C
Ki [1, 4]: < 200 nM
Ki (human H3 receptor; [5]): < 200 nM

CCN(C)C(=O)c1ccc(-c2ccc3c(c2)COC2(CCN(C4CCC4)CC2)O3)cc1 [Example 30]
melting point: 140 to 141 °C
Ki [1, 2]: < 200 nM
Ki (human H3 receptor; [3]): < 200 nM

COc1ccc(-c2ccc3c(c2)COC2(CCN(C4CCOC4)CC2)O3)cn1 (stereo not drawn) [Example 725]
melting point: 139 to 141 °C
Ki [1, 8]: 200 to 1000 nM
Ki (human H3 receptor; [9]): 200 to 1000 nM

Cc1ccc2nc(C)n(-c3ccc4c(c3)COC3(CCN(C5CCC5)CC3)O4)c(=O)c2c1 [Example 792]
melting point: 149 to 152 °C
Ki [1, 8]: < 200 nM
Ki (human H3 receptor; [9]): < 200 nM

OC1(c2ccc3c(c2)CCC2(CCN(C4CCC4)CC2)O3)CCSCC1 [Example 532]
melting point: 146 to 148 °C
Ki ([1]; read-out: Rat H3 kI): < 200 nM
Ki (human H3 receptor; read-out: Human H3 Ki): < 200 nM

CCc1cc(=O)[nH]cc1-c1ccc2c(c1)COC1(CCN(C3CCC3)CC1)O2 [Example 803]
melting point: 107 to 109 °C
Ki [1, 8]: < 200 nM
Ki (human H3 receptor; [9]): < 200 nM
